Where two headings read alike, the source gives them in different places.
Experiments:
[1] = test system: testes of male Syrian hamsters; assay: Testes weight of male hamsters after s.c. estrogen implant (estrogenicity); assay type: in vivo; conditions: for Range Of Testes Weight Of Male Hamsters: 25 mg s.c. pellet (90% estrogen), second pellet at 106 days, four animals per group
Protocol: In a second method, the weights of both testes of those male Syrian hamsters which were used in the in vivo carcinogenicity assay, were measured on the 224th day after s.c. implantation of 25 mg. pellets of estrogen. The weights were measured in grams (expressed as percent of total body weight).
(§1) Male Syrian hamsters, 3-4 weeks of age (Harlan/Sprague Dawley, Madison, Wis.), were given a 25 mg. s.c. implant consisting of 10% cholesterol and 90% estrogen. A second 25 mg. pellet of the same composition was implanted 106 days after the initial estrogen treatment. Estrogen treatment was carried out according to the procedure of Kirkman--National Cancer Institute Monograph, 2, 1-57 (1959). Control animals were left untreated. Two hundred twenty-four days after treatment with estrogens had begun, hamsters were weighed, killed, both testes were excised and their weights measured in grams. Data presented in Table 1 are the ranges of testes weights from four animals in each group. Weights are expressed as percentages of total body weights.

[2] = test system: renal clear cell carcinoma; assay: In vivo carcinogenicity: renal clear-cell carcinoma in male Syrian hamsters
Protocol: as §1
The carcinogenicity of the modified estrogens was measured in male Syrian hamsters in vivo. Estrogen, and estrogen alone, causes renal clear cell carcinoma in 100% of the male animal population when exposed to s.c. estrogen implants. This kidney tumor is estrogen-induced and estrogen-dependent for development and growth. Failure to resupply estrogen every three months or surgical removal of implants results in tumor regression within a few weeks. […] The spontaneous kidney tumor incidence in Syrian hamsters without estrogen treatment is very low. The above facts are fully discussed in Kirkman, Nat'l. Can. Inst. Monograph, 1, 1 (1959); McGregor et al., J. Nat'l. Can. Inst., 24, 1057 (1960) and Sirbasku et al., Endocrin., 98, 1260 (1976).
The protocol employed was that set out for determining estrogen activity in male hamsters according to Table 1 (in that the animals examined for tumors at 224 days were the source of the testes). In the carcinogenicity experiment, further groups of animals were examined at 279 and 345 days. The animals were decapitated, the kidneys were excised and inspected visually for the occurrence of renal celear-cell carcinoma. Sections were prepared of all kidneys and studied histologically. In the table, column 1 gives the name of the compound, column 2 the total number of animals, column 3, the number of dead or lost animals and columns 4, 5 and 6 results of histologic examination of animals at the specified time interval for renal clear-cell carcinoma.

[3] = test system: estrogen receptor; conditions: relative to estradiol = 100; Heiman et al., J. Med. Chem., 23, 994 (1980); cited from earlier work
[4] = test system: estrogen receptor; conditions: cytosol of hypothalamus-preoptic area, pituitary, uterus; Pfeiffer et al. (1982); cited from earlier work
[5] = test system: catechol estrogen formation; conditions: cited from earlier work
[6] = test system: tumors in experimental animals; conditions: prolonged treatment; testes, endometrium, ovary, cervix, mammary and other tissues; cited from earlier work
[7] = test system: estrogenic activity; conditions: catechol metabolites; cited from earlier work
[8] = test system: protein or peptides; conditions: cited from earlier work
[9] = test system: DNA; conditions: cited from earlier work
[10] = 224 days after s.c. implantation of estrogen
[11] = 279 days after s.c. implantation of estrogen
[12] = 345 days after s.c. implantation of estrogen

In the case of `C[C@]12CC[C@@H]3c4ccc(O)c(F)c4CC[C@H]3[C@@H]1CC[C@@H]2O` [4-fluoro-β-estradiol], the “Range Of Testes Weight Of Male Hamsters” value ([1]; 224 days) is reported as 0.18-0.28 % Of Total Body Weight, the “animals judged histologically to be preneoplastic” value ([2]; 224 days) is reported as 2 of 4 and the “No. of Animals with Tumors/No. of Animals Examined” value (shortened to “No. of Animals”) [2, 10] is reported as 1/4. For the same compound, the “No. of Animals” value [2, 11] was 3/6, the “No. of Animals” value [2, 12] was 0/3 and the “estrogen receptor binding affinity, ratio of association constants (Ka compound/Ka estradiol)×100” value [3] was 128. The estrogen receptor affinity [4] was “high receptor affinity” and the catechol estrogen formation ([5]; Krey et al. (1983)) was “reduced catechol estrogen formation”.

For `CC/C(=C(/CC)c1ccc(O)cc1)c1ccc(O)cc1` [DES, diethylstilbestrol], the tumor induction [6] is given as “increase the number of tumors”.

In the case of `C[C@]12CC[C@@H]3c4ccc(O)c(O)c4CC[C@H]3[C@@H]1CC[C@@H]2O` [4-hydroxyestradiol], the estrogenic activity [7] is given as “almost devoid of estrogenic activity”, the “covalent binding to protein or peptides” value ([8]; in vitro) is given as “bind covalently” and the “covalent binding to DNA” value ([9]; in vitro) is given as “bind covalently”.

With `C[C@]12CC[C@@H]3c4ccc(O)cc4CC[C@H]3[C@@H]1CC[C@@H]2O` [estradiol] the “Range Of Testes Weight Of Male Hamsters” value ([1]; 224 days) was 0.12-0.26 % Of Total Body Weight, the “testes weight relative to untreated hamsters” value ([1]; 224 days, shrinking to % of the weights of testes in untreated hamsters) was “approximately 10%” and the “No. of Animals” value [2, 10] was 4/4. The “No. of Animals” value [2, 11] was 5/5, the “No. of Animals” value [2, 12] was 0/4 and the tumor induction [6] was “induce tumors”.

For `C[C@]12CC[C@@H]3c4cc(O)c(O)cc4CC[C@H]3[C@@H]1CC[C@@H]2O` [2-hydroxyestradiol], the estrogenic activity [7] is listed as “almost devoid of estrogenic activity”, the “covalent binding to protein or peptides” value ([8]; in vitro) is listed as “bind covalently” and the “covalent binding to DNA” value ([9]; in vitro) is listed as “bind covalently”.

In the case of `C[C@]12CC[C@@H]3c4ccc(O)c(O)c4CC[C@H]3[C@@H]1CCC2=O` [4-hydroxyestrone], the estrogenic activity [7] is given as “almost devoid of estrogenic activity”, the “covalent binding to protein or peptides” value [8] is given as “bind covalently” and the “covalent binding to DNA” value [9] is given as “bind covalently”.

For `C[C@]12CC[C@@H]3c4ccc(O)cc4CC[C@H]3[C@@H]1C[C@@H](O)[C@@H]2O` [estriol], the tumor induction [6] is listed as “induce tumors”.

For `C[C@]12CC[C@@H]3c4cc(F)c(O)cc4CC[C@H]3[C@@H]1CC[C@@H]2O` [2-fluoro-β-estradiol, 2-fluoro-3,17β-estradiol], the “Range Of Testes Weight Of Male Hamsters” value ([1]; 224 days) was 0.18-0.25 % Of Total Body Weight, the “estrogenicity (conclusion)” value ([1]; in words, hamster model) was “highly estrogenic” and the “No. of Animals” value [2, 10] was 0/4. The “No. of Animals” value [2, 11] was 0/4, the “No. of Animals” value [2, 12] was 0/3 and the “potential for induced renal clear cell carcinomas” value ([2]; in words, compared with estradiol or 4-fluoro-β-estradiol at equal estrogen dosages) was “greatly decreased potential”. For the same compound, the “carcinogenicity (conclusion)” value ([2]; in words, particular animal model) was “non-carcinogenic”, the “estrogen receptor binding affinity, ratio of association constants (Ka compound/Ka estradiol)×100” value [3] was 86 and the estrogen receptor affinity [4] was “high receptor affinity”. The catechol estrogen formation [5] was “reduced catechol estrogen formation”.

In the case of `C[C@]12CC[C@@H]3c4cc(O)c(O)cc4CC[C@H]3[C@@H]1CCC2=O` [2-hydroxyestrone], the estrogenic activity [7] is given as “almost devoid of estrogenic activity”, the “covalent binding to protein or peptides” value [8] is given as “bind covalently” and the “covalent binding to DNA” value [9] is given as “bind covalently”.

For `C[C@]12CC[C@@H]3c4ccc(O)cc4CC[C@H]3[C@@H]1CCC2=O` [estrone], the tumor induction [6] is given as “induce tumors”.

From patent publication US4605649A, “Method of treatment of estrogen deficiency disease” (priority 1984, dated 1986)
